One test has as its system MHC invariant chain mRNA. Nature of the test: NF-κB target gene expression in liver of mice fed a high fat diet: MHC. To be noted: 10 mg/kg. The class given is in vivo, C57BL/6 mice. The procedure: (§1) Ovariectomized C57BL/6 mice (16-20 g) (Taconic) were separated into groups of 8. After 5-7 days of recuperation, the mice were fed a chow diet or an atherogenic diet (15.75% fat, 1.25% cholesterol and 0.5% sodium cholate) (Purina diet #21539). EE or test compound was administered once daily by gavage in a methylcellulose/tween vehicle (0.1 ml per mouse) for 5 weeks. At the end of the experimental period, the liver was collected and uterine wet weight was recorded.
(§2) Liver total RNA was prepared by using Trizol reagent (BRL). Estrogen and compound regulation of NF-κB target genes were verified by real time RT-PCR using an ABI PRISM 7700 Sequence Detection System according to the manufacturer's protocol (Applied Biosystems). The data was analyzed using the Sequence Detector v1.7 software (Applied Biosystems) and normalized to GAPDH using the Applied Biosystems primer set.
(§3) To determine the ability of estrogens to regulate the development of diet-induced inflammation in the liver, gene expression changes resulting from the atherogenic diet were monitored. Ovariectomized C57BL/6 mice were fed either a chow or atherogenic diet and treated daily with EE (0.01 mg/kg) or test compound (Table 2).

In test [1] the test system is creatine kinase expression in Ad5-wt-hERα infected HAECT-1 cells. Nature of the test: ER/CK: creatine kinase expression in Ad5-wt-ER infected HAECT-1 cells. The format is cell-based, human. As to the method:
(§4) T-175 flasks of 100% confluent HAECT-1 cells (immortalized human aortic endothelial cells) were washed with 8 ml of HBSS (HEPES buffered saline solution) and infected for four hours with 6 ml of a 1:10 dilution of Ad5-wt-hERα virus (an adenovirus transfection vector that mediates CMV promoter driven expression of human ERα) in phenol red free Endothelial Cell Basal medium (Clonetics, San Diego Calif., Catalog # CC-3129) containing 0.25% bovine serum albumin (EBM-BSA). After four hours, cells were washed with EBM-BSA and incubated overnight in the same medium. Following overnight incubation, cells were washed with EBM-BSA and infected for 2 hours with 6 ml of a 1:10 dilution of Ad5-3×(NFκB).Luc virus (Adenovirus luciferase expression vector driven by 3 repeats of the MHC NFκb site 5′ to the thymidine kinase promoter) in EBM-BSA. After two hours, cells were washed and incubated at 34° C. for 1 hour. Cells were then washed, trypsinized, counted and resuspended in 95% FBS/5% dimethylsulfoxide at a concentration of 4×10^6 cells/ml, frozen as 1 or 5 ml aliquots in cryo-vials and stored at −150° C. Control (no ER infection) cells were processed as above without Ad5-wt-hERα virus infection.
(§5) ERα infected HAECT-1 cells or control cells were thawed, diluted 42× in warm EBM-BSA, plated into 96-well plates at 0.1 ml/well and incubated for 4 h at 34° C. Test compounds were added to the cells as 2× stocks in EBM-BSA containing 2 ng/ml IL-1β (R&D Systems) and plates were returned to the incubator (34° C.). After 15-20 h, 100 μl aliquots of media were removed from the cells and assayed for IL-6 content using a BioSource human IL-6 ELISA Kit. Cells were subsequently washed with 300 μl of Dulbecco's phosphate buffered saline and lysed in 50 μl of Cell Culture Lysis Reagent (Promega). Luciferase was determined on a Wallac Victor^2 Luminometer (Gaithersburg, Md.) using 10 μl of lysate and mixing with 100 μl of Promega Luciferase Assay reagent. Creatine kinase was determined from the rate of increase in A340 following addition of 100 μl of CK assay reagent (Sigma, cat. No 47-10) to the remainder of the cell lysate.
(§6) For IC50 and EC50 calculations, mean IL-6, luciferase or CK values versus log10 of the compound concentration were fitted to a four parameter logistic equation. The IC50/EC50 value, ‘Hill slope’, upper and lower limits of the curve were iteratively estimated.

Another test relates to VCAM-1 mRNA. Nature of the test: NF-κB target gene expression in liver of mice fed a high fat diet: VCAM-1. The format is in vivo, C57BL/6 mice. Conditions: 10 mg/kg. As to the method:
as §1, §2, §3

The subject of test [2] is NF-κB luciferase reporter in Ad5-wt-hERα infected HAECT-1 cells. Nature of the test: ER/NF-κB-luc: IL-1β induced NF-κB luciferase reporter in Ad5-wt-ER infected HAECT-1 cells. Conditions: Homo sapiens. The format is cell-based. The procedure:
as §4, §5, §6
On the technique in general: In a reporter assay the amount or activity of a reporter protein is the signal.

In the next test the test system is TNF-α mRNA. Nature of the test: NF-κB target gene expression in liver of mice fed a high fat diet: TNFa. The format is in vivo, C57BL/6 mice. To be noted: 10 mg/kg. The procedure: as §1, §2, §3
The subject of test [3] is IL-6 expression in Ad5-wt-hERα infected HAECT-1 cells. Nature of the test: ER/IL-6: IL-6 expression (ELISA) in Ad5-wt-ER infected HAECT-1 cells. The format is cell-based, human. The procedure:
as §4, §5, §6
(In general: An ELISA detects its analyte on a solid surface through an enzyme-linked reagent.)

The next test deals with RANTES mRNA. Nature of the test: NF-κB target gene expression in liver of mice fed a high fat diet: RANTES. The class given is in vivo, C57BL/6 mice. Conditions: 10 mg/kg. As to the method:
as §1, §2, §3

The mark [4] stands for this setting: once daily by gavage, 5 weeks, ovariectomized mice on atherogenic diet, liver RT-PCR.

In the test with MHC invariant chain mRNA (setting [4]), `O=C(c1cccc(O)c1)c1nn(C2CCCC2)c2ccccc12` [Example 4, (1-cyclopentyl-1H-indazol-3-yl)(3-hydroxyphenyl)methanone] gave an MHC % inhib of 60%. The “MHC (eff %)” value in the test on MHC invariant chain mRNA (value in parentheses) was 138%. The EC50 in test [1] (Homo sapiens, HAECT1, read-out: ER/CK EC50 (nM)) turned out to be 1330 nM. In test [1] (efficacy relative to the maximal stimulation observed with E2), the “ER/CK % Eff*” value is recorded as 57%. Moreover, the VCAM-1 % inhib with VCAM-1 mRNA (setting [4]) is on record as 59%. Moreover, in the test with VCAM-1 mRNA (value in parentheses), the “VCAM-1 (eff %)” value is 100%. Further, the IC50 in test [2] (HAECT1, Ad5-wt-ER infected HAECT-1 cells, IL-1β, read-out: ER/NF-KB-luc IC50) was determined as 170 nM; in test [3] (Homo sapiens, HAECT1, Ad5-wt-ER infected HAECT-1 cells, IL-1β), 66 nM. Besides, the Emax in test [2] (HAECT1, efficacy relative to the maximal inhibition observed with E2, read-out: ER/NF-KB-luc % Eff*) stood at 77%. In addition, the TNFa % inhib in the test on TNF-α mRNA (setting [4]) is reported as 45%. For the same molecule, in the test on TNF-α mRNA (value in parentheses), the “TNFa (eff %)” value stood at 100%. The “ER/IL-6 % Eff” value in test [3] (efficacy relative to the maximal inhibition observed with E2) is on record as 109%. This molecule yielded an RANTES % inhib with RANTES mRNA (setting [4]) of 67%. In addition, the “RANTES (eff %)” value in the test on RANTES mRNA (value in parentheses) worked out at 151%.

Values taken from patent US7598286B2, “[(1H-indazol-3-yl)methyl]phenols and (hydroxyphenyl)(1H-indazol-3-yl)methanones” (Wyeth, priority 2004, dated 2009).
